The compounds below were run on Rat1 (assay: 90% reduction in v-Ha-ras (Ras2B) transformed RAT1 cell colony size and number in soft agar assay). Conditions: Rattus norvegicus.
Assay type: functional

SMILES | IC90 [µM]
Cc1cccc(Oc2ccc(NC[C@@H](N)CS)cc2)c1 | 10
N[C@@H](CS)CNc1ccc(Oc2cccc(CO)c2)cc1 | ~30
N[C@@H](CS)CNc1ccc(Oc2ccccc2)cc1 | 10

Other lines, results leading:

IC90 [µM] | SMILES
> 50 | N[C@@H](CS)CNc1ccc(Oc2cccc(C(=O)O)c2)cc1
> 50 | N[C@@H](CS)CNc1cccc(Oc2cccc(C(=O)O)c2)c1
10 | COC(=O)c1cccc(Oc2ccc(NC[C@@H](N)CS)cc2)c1

What follows are compounds tested against Protein farnesyltransferase (Bos taurus, UniProt P29702+P49355) (assay: Inhibition of the Farnesyltransferase catalyzed incorporation of [3H]FPP into recombinant Ha-Ras by 50% in bovine brain at a concentration of ca. 1 nM.). Conditions: not given.
Assay type: tissue-based

SMILES | IC50 [µM]
Cc1cccc(Oc2ccc(NC[C@@H](N)CS)cc2)c1 | 0.615
N[C@@H](CS)CNc1ccc(Oc2cccc(CO)c2)cc1 | 0.335
COC(=O)c1cccc(Oc2ccc(NC(=O)[C@@H](N)CS)cc2)c1 | 45
N[C@@H](CS)C(=O)Nc1ccc(Oc2ccc(C(=O)O)cc2)cc1 | 39
N[C@@H](CS)CNc1cccc(Oc2ccccc2)c1 | 2.3
N[C@@H](CS)CNc1ccc(Oc2ccccc2)cc1 | 0.46
COC(=O)c1ccc(Oc2cccc(NC(=O)[C@@H](N)CS)c2)cc1 | > 100
N[C@@H](CS)C(=O)Nc1cccc(Oc2cccc(C(=O)O)c2)c1 | 6.9

Next, values leading:

IC50 [µM] | SMILES
0.33 | Cc1cccc(Oc2cccc(NC[C@@H](N)CS)c2)c1
0.403 | N[C@@H](CS)CNc1ccc(Oc2cccc(C(=O)O)c2)cc1
> 100 | COC(=O)c1ccc(Oc2ccc(NC(=O)[C@@H](N)CS)cc2)cc1
3.8 | N[C@@H](CS)CNc1cccc(Oc2ccc(C(=O)O)cc2)c1
16 | N[C@@H](CS)C(=O)Nc1ccc(Oc2cccc(C(=O)O)c2)cc1
3.15 | N[C@@H](CS)CNc1ccc(Oc2ccc(C(=O)O)cc2)cc1
> 100 | N[C@@H](CS)C(=O)Nc1cccc(Oc2ccc(C(=O)O)cc2)c1
0.25 | N[C@@H](CS)CNc1cccc(Oc2cccc(C(=O)O)c2)c1
0.65 | COC(=O)c1cccc(Oc2ccc(NC[C@@H](N)CS)cc2)c1
45 | COC(=O)c1cccc(Oc2cccc(NC(=O)[C@@H](N)CS)c2)c1

These compounds were tested against Geranylgeranyl transferase type I (Bos taurus, UniProt P29702+Q5EAD5) (assay: Inhibition of Geranylgeranyl transferase type I, an enzyme that recognizes CaaX sequences containing leucine as the terminal residue.). Conditions: not given.
Assay type: protein-complex assay

IC50 [µM] | SMILES
5 | N[C@@H](CS)CNc1ccc(Oc2ccccc2)cc1
5.8 | N[C@@H](CS)CNc1cccc(Oc2cccc(C(=O)O)c2)c1
2.3 | COC(=O)c1cccc(Oc2ccc(NC[C@@H](N)CS)cc2)c1

These compounds were tested on Rat1 (assay: 90% reduction in v-raf (Raf1a1) transformed RAT1 cell colony size and number in soft agar assay). Conditions: Rattus norvegicus.
Assay type: functional

SMILES | IC90 [µM]
Cc1cccc(Oc2ccc(NC[C@@H](N)CS)cc2)c1 | 10
N[C@@H](CS)CNc1ccc(Oc2cccc(CO)c2)cc1 | 30
N[C@@H](CS)CNc1ccc(Oc2ccccc2)cc1 | 10

Results, then the compound that gave them:

IC90 [µM] | SMILES
> 50 | N[C@@H](CS)CNc1ccc(Oc2cccc(C(=O)O)c2)cc1
> 50 | N[C@@H](CS)CNc1cccc(Oc2cccc(C(=O)O)c2)c1
10 | COC(=O)c1cccc(Oc2ccc(NC[C@@H](N)CS)cc2)c1

From ChEMBL document CHEMBL1130358, “DIARYLETHER INHIBITORS OF FARNESYL-PROTEIN TRANSFERASE” (Bioorg Med Chem Lett, 1997)
